One experiment concerns OVA specific response. Description: Example C: OVA specific CTL response in mice injected with OVA and compound (tetramer). The format is in vivo. The conditions noted are these: for OVA specific response: 400 μg OVA with 1 μg compound i.v.; for CTL response with MPL coinjected: coinjected with 25 μg MPL. How it is done:
Subject animals, five mice per group, received an intravenous injection of 400 μg of ovalbumin (OVA) together with 1 μg of one of the compounds of the invention under examination or an equivalent volume of PBS diluted vehicle solution. A subset of mice were injected with 25 μg of the molecule MPL (Sigma-Aldrich; extracted from Salmonella Minnesota) solubilized in PBS.
Following the injections, blood was obtained from lateral tail veins, and PBLs were isolated, using standard methods. The PBLs were then stained, directly, […], with tetrameric, H-2 Kb/OVA 257-264, H-21 Kb complexes, following Palmowski, et al., J. Immunol., 168:4391-4398 (2002), incorporated by reference. The tetramers were prepared in accordance with Whilan, et al., J. Immunol., 163:4342-4348 (1999), incorporated by reference.

In experiment [1] the test system is IL-12p40 released by the DC. Description: IL-12p40 ELISA of supernatants of DC/iNKT co-cultures. The format is cell-based, human. The conditions noted are these: DC/iNKT co-culture, 24 hours. As for the experimental part:
(§1) Different analogs of α-GalCer as indicated or LPS were added to co-cultures of human DC and iNKT cells. (A) Maturation of the DC was assessed after 40 h, gating on CD11c positive cells. Histograms indicate the CD83 and CD86 profiles of DC from different treatments; the percentages indicate the percentage of CD83hi mature DC and the numbers in parenthesis, the mean fluorescence intensity of the population contained within the labeled gate. DC and iNKT cells were co-cultured in the presence of different analogs of α-GalCer for 24 hours. Supernatants were analyzed using ELISA for the presence of (B) IL-12p40 released by the DC and (C) IFN-γ from the iNKT cells. […] Cells were co-cultured in the presence of the indicated concentration of analog and the percentages of DC with increased CD83/CD80 are shown. […] Viability of α-GalCer or analog-pulsed DC was assessed after 40 h co-culture in the presence of iNKT cells by flow cytometry. Cells were stained with propidium iodide and the percentage of live CD11c gated cells remaining in the culture are shown.
(§2) Human monocyte-derived DC were pulsed with 150 ng of different inositol analogs and co-cultured with iNKT cells for 24 h. […] Numbers indicate the mean fluorescence intensity of the histogram gated on CD11c^+ cells.
Release of IL-12p40 (and bioactive p75) by DC is a marker of activation and is thought to play an important role in regulating the profile of the immune response generated in response to those DC (Trinchieri et al, Nat Rev Immunol, 2003, 3; 133-46).
For orientation: An ELISA detects its analyte on a solid surface through an enzyme-linked reagent.

The test system of experiment [2] is OVA specific IgG antibodies. The experiment is described as follows: Example D: OVA specific IgG antibodies in serum of immunized mice (ELISA). The format is in vivo. The conditions noted are these: ten days following immunization. As for the experimental part: OVA protein coated ELISA plates, were prepared, using well known methods. Then, blood samples were taken, ten days following immunization, and serum was prepared.
The samples were taken from mice that had been immunized with OVA only, OVA and Compound 1, arabinitol ceramide, OVA and αGal-Cer, or OVA and Compound 2, glycerol ceramide. Additionally, mice were immunized with each of these schedules with MPL added. Serum IgG titers were measured by adding serial dilutions of mouse serum were detected using horseradish peroxidase (HRP) conjugated α-mouse IgG.

A further experiment relates to IL-4 and IFN-γ. Description: Serum cytokines after i.v. injection into mice (ELISA). The format is in vivo, C57BL/6 mice. The conditions noted are these: for cytokine release in serum (IL-4, IFN-γ, IL-12p40/70): wild type mice, 1 μg i.v., 2, 6 and 18-24 h. As for the experimental part:
C57BL/6 or iNKT^−/− mice were injected i.v. with 1 μg of vehicle, α-GalCer, analog or 25 μg MPL. Twenty hours after injection splenocytes were stained with antibodies against CD11c, B220 and CD86 and analyzed by flow cytometry. (A) Maturation was assessed by the upregulation of CD86 at the cell surface, gating on DC (CD11c^+). Mean fluorescence intensity for each histogram is indicated. These are representative profiles of two independent experiments. 2, 6 and 18-24 h after injection as described, the mice were bled and the serum tested with ELISA for the presence of (B) IL-4 and (C) IFN-γ released in response to the analog.
Stimulation of iNKT cells by α-GalCer in the context of CD1d rapidly induces release of significant levels of a number of cytokines including IFN-γ and IL-4 (Burdin, Brossay et al, J Immunol, 1998, 161; 3271-81), IL-3 and GM-CSF (Leite-de-Moraes, Lisbonne et al, Eur J Immunol, 2002, 32; 1897-904) with other downstream cell-types including DC (Kitamura, Iwakabe et al, J Exp Med, 1999, 189; 1121-8) and NK cells (Carnaud, Lee et al, J Immunol, 1999, 163; 4647-50) being activated.

Experiment [3] relates to IFN-γ from the iNKT cells. The experiment is described as follows: IFN-γ ELISA of supernatants of DC/iNKT co-cultures. The settings on record: analogs presented by DC. The format is cell-based, human. How it is done: as §1, §2
Experiment [4] has as its system DCs obtained from the spleen. Description: Example E: phenotyping of spleen DCs after tail vein injection (CD86). The format is in vivo, mice. The settings on record: 1 μg tail vein, 24 h. As for the experimental part:
In brief, in each experiment, 1 μg of one of a selection of compounds of the invention was injected into the tail vein of subject mice. 24 h later spleen tissue was removed from the animals and gently teased through gauze into complete medium, supplemented with 5 mM of EDTA. Cells were enriched for CD11c by anti-CD11, magnetic beads using published techniques. Once enriched, they were assayed for maturation markers using antibody staining and flow cytometry. Non-specific staining was addressed by using an antibody specific for the Fc-RIII/II receptor.

In experiment [5] the test system is antigen-specific CD8^+ T cells. Description: OVA-specific CD8+ T cells after co-injection with OVA ([…]-Kb tetramer). The format is in vivo, C57BL/6 mice. The conditions noted are these: 1 μg with 800 μg OVA, 6 days. How it is done:
(§3) (A) C57BL/6 mice were co-injected with 1 μg α-GalCer or analog and 800 μg OVA. 6 days later blood samples taken from the tail vein were stained directly ex vivo with fluorescent […]-K^b tetramers and an anti-CD8 antibody and analyzed by flow cytometry. Data are shown as tetramer positive cells as a percentage of CD8^+ cells. (B) 7 days after injection, the mice were challenged in a prophylactic setting with 1×10^6 E.G7-OVA tumour cells s.c. and the size of the tumour monitored over subsequent days.
Previously we, and others have shown that co-injection of model antigens such as OVA (Silk, Hermans et al, J Clin Invest, 2004, 114; 1800-11, Fujii, Shimizu et al, J Exp Med, 2003, 198; 267-79, Hermans, Silk et al, J Immunol, 2003, 171; 5140-7) and β-galactosidase (Silk, Hermans et al, J Clin Invest, 2004, 114; 1800-11) together with α-GalCer induces enhanced CD8^+, CD4^+ T cell and B cell responses. These were effective for therapy against tumour cells expressing the target antigen. The various analogs were co-injected with OVA into wild type mice and 6 days later the blood examined for the presence of antigen-specific CD8^+ T cells using fluorescent K^b-[…] tetramers.

In another experiment the test system is E.G7-OVA tumour cells. Description: Prophylactic challenge with E.G7-OVA tumour cells after co-injection with OVA. The format is in vivo, C57BL/6 mice. The conditions noted are these: injected with OVA, challenge 7 days later with 1×10^6 E.G7-OVA s.c. How it is done: as §3

SMILES strings stand for the structures.

For `CCCCCCCCCCCCCCCCCCCCCCCCCC(=O)N[C@@H](COC[C@@H](O)CO)[C@H](O)[C@H](O)CCCCCCCCCCCCCC` [Compound 2, Glycerol Ceramide], the OVA specific response result with OVA specific response is “Enhancement was weakest”. For the same compound, in experiment [1], the “IL-12p40 level relative to that seen with α-GalCer” value is listed as “approximately 50%”. The “OVA specific antibody response, adjuvant effect compared with MPL” value in experiment [2] is “less effective than MPL whilst still producing OVA specific antibodies”. In addition, the “cytokine release in serum (IL-4, IFN-γ, IL-12p40/70)” value in the experiment on IL-4 and IFN-γ is given as “did not induce any detectable cytokine release”. In experiment [3], the “IFN-γ released by the iNKT cells” value is around 20 ng/mL. The “induction of CD86 on spleen DC in vivo” value in experiment [4] was “induced CD86 in vivo similarly”. The “antigen-specific CD8+ T cell response” value in experiment [5] is recorded as “did not”.
Turning to `CCCCCCCCCCCCCCCCCCCCCCCCCC(=O)N[C@@H](CO[C@H]1OC(CO)[C@H](O)C(O)C1O)[C@H](O)[C@H](O)CCCCCCCCCCCCCC` (stereo partly drawn) [α-GalCer, α galactosylceramide, reference compound], in the experiment on OVA specific response, the OVA specific response entry is recorded as “enhancement of the OVA specific response” and the “CTL response with MPL coinjected” value is “enhancement of the CTL response”. Further, in experiment [1], the IL-12p40 released entry is listed as “significant levels of IL-12p40”. In addition, the “OVA specific antibody response, adjuvant effect compared with MPL” value in experiment [2] is on record as “more effective as adjuvants than MPL”. Further, the “IFN-γ released by the iNKT cells” value in experiment [3] was “approximately 40 ng/ml”. In the experiment on E.G7-OVA tumour cells, the tumour growth result is “little or no tumour growth”. In addition, the “induction of CD86 on spleen DC in vivo” value in experiment [4] was “induced CD86 in vivo similarly”.
On to `CCCCCCCCCCCCCCCCCCCCCCCCCC(=O)N[C@@H](COC[C@H](O)[C@@H](O)CO)[C@H](O)[C@H](O)CCCCCCCCCCCCCC` [Compound 3, Threitol Ceramide], for which, in the experiment on OVA specific response, the OVA specific response result is “enhancement of the OVA specific response” and the “CTL response with MPL coinjected” value is on record as “enhancement of the CTL response”. Besides, the “IL-12p40 level relative to that seen with α-GalCer” value in experiment [1] is given as “approximately 50%”. Moreover, the “skewing of cytokine response to Th2” value in the experiment with IL-4 and IFN-γ (compared with OCH) was “Neither compound showed a skewed Th2 cytokine response”. Also, the “potency of cytokine induction compared with α-GalCer” value in the experiment with IL-4 and IFN-γ (equivalent doses) is on record as “less potent than α-GalCer at equivalent doses”. Also, the “cytokine release in serum (IL-4, IFN-γ, IL-12p40/70)” value with IL-4 and IFN-γ was “detected in the serum with a similar time-course to that seen with α-GalCer”. In addition, the “IFN-γ released by the iNKT cells” value in experiment [3] is around 20 ng/mL. Besides, the tumour growth entry with E.G7-OVA tumour cells is given as “little or no tumour growth”. In experiment [4], the “induction of CD86 on spleen DC in vivo” value is reported as “did not induce the DC86 marker significantly”. The “antigen-specific CD8+ T cell response” value in experiment [5] is “induced a significant CD8^+ T cell response after 6 days, although less potently than α-GalCer”.

The values above are taken from patent publication US8039670B2, “Analogs of alpha galactosyceramide and uses thereof” (Ludwig Institute for Cancer Research, priority 2005, dated 2011).
